Patent publication US7825126B2 (The United States of America as represented by the …, priority 2004, dated 2010)
Where two headings read alike, the source gives them in different places.

Assays:
[1] = target: T1, human A2B adenosine receptor (hA2BAR) (Homo sapiens, UniProt P29275); settings: data from literature (footnotes c, f, h); cited from earlier work
T1 sequence (P29275 1-332): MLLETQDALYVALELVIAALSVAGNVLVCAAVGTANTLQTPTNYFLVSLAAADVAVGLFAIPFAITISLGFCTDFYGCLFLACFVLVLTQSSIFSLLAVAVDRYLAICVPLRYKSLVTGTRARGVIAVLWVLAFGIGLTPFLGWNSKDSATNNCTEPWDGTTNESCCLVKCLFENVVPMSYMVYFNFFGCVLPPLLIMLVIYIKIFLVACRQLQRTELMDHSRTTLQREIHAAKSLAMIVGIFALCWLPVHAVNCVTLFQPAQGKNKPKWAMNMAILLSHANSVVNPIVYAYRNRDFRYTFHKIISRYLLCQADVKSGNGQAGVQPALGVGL

[2] = target: T2, rat A3 adenosine receptor (Rattus norvegicus, UniProt P28647)
T2 construct: expressed in transfected cells; host or cells: CHO cells
T2 sequence (P28647 1-320): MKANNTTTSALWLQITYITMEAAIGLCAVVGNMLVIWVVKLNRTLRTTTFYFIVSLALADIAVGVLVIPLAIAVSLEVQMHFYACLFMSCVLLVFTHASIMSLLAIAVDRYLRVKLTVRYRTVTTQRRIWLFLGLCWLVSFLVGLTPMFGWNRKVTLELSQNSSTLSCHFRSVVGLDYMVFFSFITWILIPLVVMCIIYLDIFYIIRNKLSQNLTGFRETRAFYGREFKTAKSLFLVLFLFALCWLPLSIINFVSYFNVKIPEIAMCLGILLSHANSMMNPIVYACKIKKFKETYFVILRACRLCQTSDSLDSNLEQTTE

human A1 receptors [3] = target: T3, human A1 receptors (Homo sapiens, UniProt P30542)
T3 construct: expressed in transfected cells
T3 sequence (P30542 1-326): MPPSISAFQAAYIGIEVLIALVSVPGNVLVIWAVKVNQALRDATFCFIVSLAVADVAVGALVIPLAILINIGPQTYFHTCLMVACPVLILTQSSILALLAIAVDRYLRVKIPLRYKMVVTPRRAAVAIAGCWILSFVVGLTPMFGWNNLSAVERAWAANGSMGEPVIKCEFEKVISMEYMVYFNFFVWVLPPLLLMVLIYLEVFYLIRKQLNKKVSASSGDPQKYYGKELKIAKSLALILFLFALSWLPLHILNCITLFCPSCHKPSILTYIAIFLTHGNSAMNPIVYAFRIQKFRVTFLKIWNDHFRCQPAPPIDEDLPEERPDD

[4] = target: T4, human A3 adenosine receptor (Homo sapiens, UniProt P0DMS8); parameters: expressed in transfected cells; host or cells: CHO cells; settings: relative to 10 μM Cl-IB-MECA, data from literature (footnotes c, d, e, f); cited from earlier work
T4 sequence (P0DMS8 1-318): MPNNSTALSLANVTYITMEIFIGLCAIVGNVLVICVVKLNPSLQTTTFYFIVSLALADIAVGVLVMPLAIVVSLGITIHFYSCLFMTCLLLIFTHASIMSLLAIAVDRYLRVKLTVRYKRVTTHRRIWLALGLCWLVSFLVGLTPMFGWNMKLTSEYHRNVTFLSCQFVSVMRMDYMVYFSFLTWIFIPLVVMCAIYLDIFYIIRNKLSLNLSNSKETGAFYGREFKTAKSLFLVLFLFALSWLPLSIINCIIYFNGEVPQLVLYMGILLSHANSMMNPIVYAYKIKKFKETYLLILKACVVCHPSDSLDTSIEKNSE

[5] = target: T2, rat A3 adenosine receptor; assay: Binding at rat A3 adenosine receptor ([125I]I-AB-MECA, CHO cell membranes); settings: rat A3 AR in CHO cells; unit nM printed in b194 only; read-out: Ki(rA3AR)
[6] = target: T4, human A3 adenosine receptor; assay: Cyclic AMP accumulation assay (inhibition of forskolin-stimulated cAMP), CHO cells expressing human A3 adenosine receptor; settings: 10 μM, relative to 10 μM Cl-IB-MECA
human A2A receptors [7] = target: T5, human A2A receptors (Homo sapiens, UniProt P29274); assay: Binding at human A2A adenosine receptor ([3H]CGS21680, HEK-293 cell membranes); settings: [3H]CGS 21680; for Ki: mean ± s.e.m., n = 3-5, read-out: Ki(hA2AAR)
T5 construct: expressed in transfected cells

human A1 receptors [8] = target: T3, human A1 receptors; assay: Binding at human A1 adenosine receptor ([3H]R-PIA, CHO cell membranes); settings: for Ki: mean ± s.e.m., n = 3-5, read-out: Ki(hA1AR)
[9] = target: T4, human A3 adenosine receptor; assay: Binding at human A3 adenosine receptor ([125I]I-AB-MECA, CHO cell membranes); parameters: expressed in transfected cells; host or cells: CHO cells; settings: for Ki: [125I]I-AB-MECA, mean ± s.e.m., n = 3-5, read-out: Ki(hA3AR)
[10] = target: T1, human A2B adenosine receptor (hA2BAR); assay: Activation of human A2B adenosine receptor at 10 μM; type: cell-based; settings: CHO cells
human A2A receptors [11] = target: T5, human A2A receptors; settings: data from literature (footnotes c, d, f, g); read-out: Ki(hA2AAR); cited from earlier work
[12] = rat A3 AR; data from literature (footnotes c, d, f, i); unit nM printed in b194 only; read-out: Ki(rA3AR); cited from earlier work

T5 sequence (P29274 whole entry): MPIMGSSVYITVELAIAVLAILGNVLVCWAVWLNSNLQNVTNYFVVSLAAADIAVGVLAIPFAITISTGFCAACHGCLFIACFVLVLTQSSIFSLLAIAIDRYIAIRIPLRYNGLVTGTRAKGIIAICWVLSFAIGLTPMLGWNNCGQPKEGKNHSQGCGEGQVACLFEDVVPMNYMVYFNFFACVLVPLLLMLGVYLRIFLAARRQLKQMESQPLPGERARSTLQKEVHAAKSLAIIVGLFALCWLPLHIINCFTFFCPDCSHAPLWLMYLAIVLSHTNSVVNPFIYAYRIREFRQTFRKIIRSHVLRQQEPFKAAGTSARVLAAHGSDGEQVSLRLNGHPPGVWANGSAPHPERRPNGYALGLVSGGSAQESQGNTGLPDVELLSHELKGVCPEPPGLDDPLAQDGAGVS

Row | % Activation (hA3AR) at 10 μM [6] | % displ. at 10 μM (hA2AAR) (human A2A receptors [7]) | % Activation (hA2BAR) at 10 μM [10] | Structure (SMILES) | % Activation (hA3AR) at 10 μM [4] | Ki (human A1 receptors [8]) | Ki (human A2A receptors [7]) | also measured
1 | 104 ± 7% | 6% | – | CNC(=O)[C@@]12C[C@@H]1[C@@H](n1cnc3c(NC)nc(Cl)nc31)[C@H](O)[C@@H]2O [Compound 14] | – | 2100 ± 1700 nM | – | Ki [5]: 160 ± 30 nM
2 | 108 ± 5% | 12% | 6% | CNC(=O)C12CC1C(n1cnc3c(NCc4cc(C#CCO)ccc4Cl)nc(Cl)nc31)C(O)C2O (stereo not drawn) [Compound 30, (1′S,2′R,3′S,4′S,5′S)-4′-[6-(2-Chloro-5-(3-hydroxypropynyl)-benzylamino)-2-chloro-purin-9-yl]-2′,3′-dihydroxy-bicyclo[3.1.0]hexane-1′-carboxylic acid methylamide] | – | – | – | % displ. at 10 μM (hA1AR) (human A1 receptors [8]; 10 μM): 14%; Ki [9]: 217 ± 27 nM
3 | 110 ± 10% | – | 49% | CNC(=O)C12CC1C(n1cnc3c(NCc4cc(Cl)ccc4OCc4ccccc4)nc(Cl)nc31)C(O)C2O (stereo not drawn) [Compound 24, (1′S,2′R,3′S,4′S,5′S)-4′-[6-(5-Chloro-2-benzyloxy-benzylamino)-2-chloro-purin-9-yl]-2′,3′-dihydroxy-bicyclo[3.1.0]hexane-1′-carboxylic acid methylamide] | – | 1200 ± 200 nM | 850 ± 160 nM | Ki [9]: 5.2 ± 1.3 nM; Ki [5]: 11 ± 3 nM
4 | 100 ± 4% | 52% | – | CNC(=O)C12CC1C(n1cnc3c(NCc4cccc(Cl)c4)nc(SC)nc31)C(O)C2O (centres unmarked) [Compound 36] | – | – | – | –
5 | – | 33% | 4% | CNC(=O)C12CC1C(n1cnc3c(NCc4cccnc4)nc(Cl)nc31)C(O)C2O (stereo not drawn) [Compound 32, (1′S,2′R,3′S,4′S,5′S)-4′-[6-(3-Pyridylmethylamino)-2-chloro-purin-9-yl]-2′,3′-dihydroxy-bicyclo[3.1.0]hexane-1′-carboxylic acid methylamide] | – | – | – | –
6 | – | 56% | 28% | CNC(=O)C12CC1C(n1cnc3c(NCc4cccc(C#CCO)c4)nc(Cl)nc31)C(O)C2O (stereo not drawn) [Compound 29, (1′S,2′R,3′S,4′S,5′S)-4′-[6-(3-(3-Hydroxypropynyl)-benzylamino)-2-chloro-purin-9-yl]-2′,3′-dihydroxy-bicyclo[3.1.0]hexane-1′-carboxylic acid methylamide] | – | – | – | –
7 | – | – | 58% | CNC(=O)C12CC1C(n1cnc3c(NCc4cc(I)ccc4Cl)nc(Cl)nc31)C(O)C2O (stereo not drawn) [Compound 21, (1′S,2′R,3′S,4′S,5′S)-4′-[6-(2-Chloro-5-iodo-benzylamino)-2-chloro-purin-9-yl]-2′,3′-dihydroxy-bicyclo[3.1.0]hexane-1′-carboxylic acid methylamide] | – | – | 480 ± 20 nM | –

More lines, now with the values behind:

Row | Structure (SMILES) | % Activation (hA3AR) at 10 μM [6] | % displ. at 10 μM (hA2AAR) (human A2A receptors [7]) | % Activation (hA2BAR) at 10 μM [10] | % Activation (hA3AR) at 10 μM [4] | Ki (human A1 receptors [8]) | Ki (human A2A receptors [7]) | also measured
8 | OCC1OC(n2cnc3c(NCc4cccc(I)c4)ncnc32)C(O)C1O (centres unmarked) [Compound 1a] | – | – | – | 46 ± 8% | – | – | % Activation (hA2BAR) at 10 μM [1]: 58%; Ki [2, 12]: 9.5 ± 1.4 nM; Ki (human A1 receptors [3]; data from literature (footnotes c, d, f, g); read-out: Ki(hA1AR); cited from earlier work): 7.4 ± 1.7 nM
9 | CNC(=O)[C@@]12C[C@@H]1[C@@H](n1cnc3c(NCc4cccc(I)c4)nc(Cl)nc31)[C@H](O)[C@@H]2O [Compound 5, (1′S,2′R,3′S,4′R,5′S)-[4′-(2-chloro-6-{[(3-iodophenyl)methyl]amino}purin-9-yl)-2′,3′-dihydroxybicyclo[3.1.0]hexyl]-N-methylcarboxamide] | – | – | – | 100^e % | – | – | Ki [5]: 1.1 ± 0.1 nM
10 | OCC1OC(n2cnc3c(NCc4cccc(I)c4)nc(Cl)nc32)C(O)C1O (centres unmarked) [Compound 1b] | – | – | – | 0% | – | – | % Activation (hA2BAR) at 10 μM [1]: 16%; Ki ([2]; read-out: Ki(rA3AR); rat A3 AR; data from literature (footnotes c, d, f, i); unit nM printed in b194 only; cited from earlier work): 2.7 ± 1.2 nM; Ki (human A1 receptors [3]; read-out: Ki(hA1AR); data from literature (footnotes c, d, f, g); cited from earlier work): 17 ± 2 nM
11 | CNC(=O)[C@@]12C[C@@H]1[C@@H](n1cnc3c(NCc4cccc(I)c4)ncnc31)[C@H](O)[C@@H]2O [Compound 16] | – | – | – | 100^e % | 700 ± 270 nM | 6200 ± 100 nM | –
12 | CNC(=O)[C@@]12C[C@@H]1[C@H](n1cnc3c(NCc4cccc(Cl)c4)nc(Cl)nc31)[C@H](O)[C@@H]2O [Compound 18, (1′S,2′R,3′S,4′S,5′S)-4′-[6-(3-Chlorobenzylamino)-2-chloro-purin-9-yl]-2′,3′-dihydroxy-bicyclo[3.1.0]hexane-1′-carboxylic acid methylamide] | – | – | 38% | – | 260 ± 60 nM | 2300 ± 100 nM | Ki [5]: 1 ± 0.1 nM
13 | OCC1OC(n2cnc3c(NC4CC4c4ccccc4)ncnc32)C(O)C1O (centres unmarked) [Compound 10] | – | – | – | 101 ± 5% | – | – | Ki (human A2A receptors [11]): 2500 ± 700 nM; % Activation (hA2BAR) at 10 μM [1]: 26%; Ki [2, 12]: 400 ± 30 nM
14 | CNC(=O)[C@@]12C[C@@H]1[C@@H](n1cnc3c(NCc4cccc(I)c4)nc(Cl)nc31)[C@H](O)[C@@H]2O [Compound 4, reference compound] | 3 ± 2% | – | – | – | 65 ± 17 nM | 1600 ± 400 nM | –
15 | OC[C@H]1O[C@@H](n2cnc3c(NCc4cccc(Cl)c4)ncnc32)[C@H](O)[C@@H]1O [Compound 8, reference compound] | – | – | – | 80 ± 3^d % | 20 ± 3 nM | 1400 ± 200 nM | –
16 | OCC1OC(n2cnc3c(NCC(c4ccccc4)c4ccccc4)ncnc32)C(O)C1O (centres unmarked) [Compound 13] | – | – | – | 0% | – | – | % Activation (hA2BAR) at 10 μM [1]: 70%; Ki [2, 12]: 540 ± 200 nM
17 | CNC(=O)[C@@]12C[C@@H]1[C@H](n1cnc3c(NCc4cc(Cl)ccc4Cl)nc(Cl)nc31)[C@H](O)[C@@H]2O [Compound 20, (1′S,2′R,3′S,4′S,5′S)-4′-[6-(2,5-Dichlorobenzylamino)-2-chloro-purin-9-yl]-2′,3′-dihydroxy-bicyclo[3.1.0]hexane-1′-carboxylic acid methyl amide] | – | – | 32% | – | – | 1300 ± 100 nM | –
18 | CNC(=O)C12CC1C(n1cnc3c(NCc4cc(OC)ccc4OC)nc(Cl)nc31)C(O)C2O (stereo not drawn) [Compound 26, (1′S,2′R,3′S,4′S,5′S)-4′-[6-(2,5-Dimethoxy-benzylamino)-2-chloro-purin-9-yl]-2′,3′-dihydroxy-bicyclo[3.1.0]hexane-1′-carboxylic acid methylamide] | 107 ± 10% | 52% | 0% | – | 1600 ± 200 nM | – | Ki [9]: 1.4 ± 0.2 nM; Selectivity for the human A3 adenosine receptor in comparison to the A1 adenosine receptor ([9]; ratio of Ki hA1 / hA3): 1200 fold; Ki [5]: 0.87 ± 0.24 nM
